The record followed here is paper PMC6332289, “Anti-Oxidant, Anti-Aging, and Anti-Melanogenic Properties of the Essential Oils from Two Varieties of Alpinia zerumbet” (Molecules, 2015).

≈ marks a conversion by molar mass, not a printed value.

The assay deals with T1, Clostridium histolyticum collagenase (ChC).
T1 construct: gene colG; commercial collagenase from Sigma-Aldrich
As to the kind of experiment: FALGPA hydrolysis, absorbance at […] nm. In kind it is biochemical, Hathewaya histolytica. Conditions: 50 mM tricine, 400 mM NaCl, 10 mM CaCl2, pH 7.5; 0.8 mM FALGPA; 15 min preincubation.

As a reminder, the IC50 is the concentration that gives 50% inhibition. Consider `CC1(C)CC[C@]2(C(=O)O)CC[C@]3(C)C(=CC[C@@H]4[C@@]5(C)CC[C@H](O)C(C)(C)[C@@H]5CC[C@]43C)[C@@H]2C1` [oleanolic acid], for which the IC50 turned out to be 21 ± 0.2 µg/mL (≈ 46 µM).
